Assay results from patent publication US20230270713A1, “Administration of Resiniferatoxin For Treatment of Bladder Pain or Bladder Cancer” (Sorrento Therapeutics, Inc., priority 2020, published 2023).
Several values for one entry are separate records, joined by “and”; a condition that tells them apart may be missing. Identical values can stand only once. Like-named read-outs stand apart in the source and are kept apart here.

Experiment: Pharmacokinetic/toxicokinetic profile of RTX after intravesical instillation in dogs
Format: in vivo, dog
Experimental: Local tolerance and the pharmacokinetic (PK), and toxicokinetic (TK) profile of RTX in dogs was determined after a single instillation of RTX into the bladder of dogs (n=6). The RTX formulations were prepared using aseptic techniques in a biological safety cabinet (BSC) by mixing the appropriate amount of diluent with the appropriate amount of RTX. Dosing formulation concentrations used were 1 and 10 mcg/mL.
Three male and three female dogs ranging in weight from 5.95 to 8.60 kg were used in the study. The dogs were assigned into Group 1 (receiving a dose of 1 mcg/mL RTX) or Group 2 (receiving a dose of 10 mcg/mL RTX) as shown in the Table 3 below.
RTX was administered via intravesical instillation into the urinary bladder. The animals were given a single dose of 25 or 250 mcg/dose in a total volume of 25 mL on Day 1 over a period of 1 hour (±5 minutes). RTX and diluent were administered to the dogs under general anesthesia via a Foley catheter placed into the bladder for 1 hour (±5 minutes).
Blood samples were collected from all animals on Day 1 pre-dose and at 0.5, 1, 2, 4, 6, 12, 24, 36, 48, 60, and 72 hours post-dose. The toxicokinetic (TK) parameters were determined for RTX, and if appropriate, the metabolites, from mean concentration-time data.
Cmax is the observed maximum plasma concentration from the start of dosing. Tmax is the time to reach the Cmax. AUC(0-T) is the area under the plasma concentration-time curve from time zero to the last measurable time point calculated by the linear trapezoidal rule.

[1] = male dogs 1003, 1005 individual, 250 mcg intravesical
[2] = male dogs, 250 mcg intravesical

SMILES: C=C(C)[C@]12C[C@@H](C)[C@@]34O[C@](Cc5ccccc5)(O[C@@H]1[C@@H]3C=C(COC(=O)Cc1ccc(O)c(OC)c1)C[C@]1(O)C(=O)C(C)=C[C@@H]41)O2 [RTX, resiniferatoxin]
- time by which RTX plasma concentrations fell to zero (male and female dogs, 250 mcg, post-dose): ≤ 4 h
- absorption into the systemic circulation (male and female dogs, single 250 mcg intravesical instillation): absorbed rapidly
- Plasma concentration of RTX (male dog 1001, 25 mcg intravesical, 0.5 h): BQL (*BQL—Below quantifiable limit (<50.0 pg/mL); adequate signal-to-noise enabled reporting value as estimate)
- Plasma concentration of RTX (male dog 1001, 25 mcg intravesical, 2 h): BQL (*BQL—Below quantifiable limit (<50.0 pg/mL); adequate signal-to-noise enabled reporting value as estimate)
- Plasma concentration of RTX (male dog 1001, 25 mcg intravesical, 4 h): BQL (*BQL—Below quantifiable limit (<50.0 pg/mL); adequate signal-to-noise enabled reporting value as estimate)
- Plasma concentration of RTX (male dog 1001, 25 mcg intravesical, 6 h): BQL (*BQL—Below quantifiable limit (<50.0 pg/mL); adequate signal-to-noise enabled reporting value as estimate)
- Plasma concentration of RTX (male dog 1001, 25 mcg intravesical, 12 h): BQL (*BQL—Below quantifiable limit (<50.0 pg/mL); adequate signal-to-noise enabled reporting value as estimate)
- Plasma concentration of RTX (male dog 1001, 25 mcg intravesical, 24 h): BQL (*BQL—Below quantifiable limit (<50.0 pg/mL); adequate signal-to-noise enabled reporting value as estimate)
- Plasma concentration of RTX (male dog 1001, 25 mcg intravesical, 36 h): BQL (*BQL—Below quantifiable limit (<50.0 pg/mL); adequate signal-to-noise enabled reporting value as estimate)
- Plasma concentration of RTX (male dog 1001, 25 mcg intravesical, 48 h): BQL (*BQL—Below quantifiable limit (<50.0 pg/mL); adequate signal-to-noise enabled reporting value as estimate)
- Plasma concentration of RTX (male dog 1001, 25 mcg intravesical, 60 h): BQL (*BQL—Below quantifiable limit (<50.0 pg/mL); adequate signal-to-noise enabled reporting value as estimate)
- Plasma concentration of RTX (male dog 1001, 25 mcg intravesical, 72 h): BQL (*BQL—Below quantifiable limit (<50.0 pg/mL); adequate signal-to-noise enabled reporting value as estimate)
- Plasma concentration of RTX (male dog 1001, 25 mcg intravesical, Predose): BQL (*BQL—Below quantifiable limit (<50.0 pg/mL); adequate signal-to-noise enabled reporting value as estimate)
- AUC(0-T) [1]: 0.365 ng·h/mL
- AUC(0-T)/Dose [1]: 1.42 pg·h/mL/µg and 1.46 pg·h/mL/µg
- Cmax [1]: 0.44 ng/mL
- Cmax/Dose [1]: 1.06 pg/mL/µg and 1.76 pg/mL/µg
- Plasma concentration of RTX (male dogs 1003, 1005 individual, 250 mcg intravesical, 0.5 h): 0.44 ng/mL
- Plasma concentration of RTX (male dogs 1003, 1005 individual, 250 mcg intravesical, 1 h): 0.151 ng/mL
- Plasma concentration of RTX (male dogs 1003, 1005 individual, 250 mcg intravesical, 2 h): 0.0633 ng/mL
- Plasma concentration of RTX (male dogs 1003, 1005 individual, 250 mcg intravesical, 4 h): 0 ng/mL
- Plasma concentration of RTX (male dogs 1003, 1005 individual, 250 mcg intravesical, 6 h): 0 ng/mL
- Plasma concentration of RTX (male dogs 1003, 1005 individual, 250 mcg intravesical, 12 h): 0 ng/mL
- Plasma concentration of RTX (male dogs 1003, 1005 individual, 250 mcg intravesical, 24 h): 0 ng/mL
- Plasma concentration of RTX (male dogs 1003, 1005 individual, 250 mcg intravesical, 36 h): 0 ng/mL
- Plasma concentration of RTX (male dogs 1003, 1005 individual, 250 mcg intravesical, 48 h): 0 ng/mL
- Plasma concentration of RTX (male dogs 1003, 1005 individual, 250 mcg intravesical, 60 h): 0 ng/mL
- Plasma concentration of RTX (male dogs 1003, 1005 individual, 250 mcg intravesical, 72 h): 0 ng/mL
- Plasma concentration of RTX (male dogs 1003, 1005 individual, 250 mcg intravesical, Predose): 0 ng/mL
- AUC(0-T)/Dose, Mean [2]: 1.44 pg·h/mL/µg
- Cmax/Dose, Mean [2]: 1.41 pg/mL/µg
- Plasma concentration of RTX, Mean (male dogs, 250 mcg intravesical, Predose): 0 ng/mL
- AUC(0-t) (male, dog, plasma, 250 ug, male dogs 1003, 1005 individual, 250 mcg intravesical, read-out: AUC(0-T)): 0.356 ng·h/mL
- Cmax (male, dog, plasma, 250 ug, male dogs 1003, 1005 individual, 250 mcg intravesical, read-out: Cmax): 0.264 ng/mL
- Tmax (male, dog, plasma, 250 ug, male dogs 1003, 1005 individual, 250 mcg intravesical, read-out: Tmax): 60 min
- AUC(0-t) (male, dog, plasma, 250 ug, male dogs, 250 mcg intravesical, read-out: AUC(0-T), Mean): 0.361 ± 0.00636 ng·h/mL
- Cmax (male, dog, plasma, 250 ug, male dogs, 250 mcg intravesical, read-out: Cmax, Mean): 0.352 ± 0.124 ng/mL
- Tmax (male, dog, plasma, 250 ug, male dogs, 250 mcg intravesical, read-out: Tmax, Mean): 45 ± 21.2 min
- Tmax (male, dog, plasma, other: intravesical instillation, 250 ug, male dogs, 250 mcg intravesical, read-out: Tmax, Mean): 45 min
- concentration at 1 h (male, dog, plasma, other: intravesical instillation, 25 mcg, male dog 1001, 25 mcg intravesical, 1 h, read-out: Plasma concentration of RTX): 0.0155 ng/mL
- concentration at 0.5 h (male, dog, plasma, other: intravesical instillation, 250 mcg, male dogs 1003, 1005 individual, 250 mcg intravesical, 0.5 h, read-out: Plasma concentration of RTX): 0.257 ng/mL
- concentration at 1 h (male, dog, plasma, other: intravesical instillation, 250 mcg, male dogs 1003, 1005 individual, 250 mcg intravesical, 1 h, read-out: Plasma concentration of RTX): 0.264 ng/mL
- concentration at 2 h (male, dog, plasma, other: intravesical instillation, 250 mcg, male dogs 1003, 1005 individual, 250 mcg intravesical, 2 h, read-out: Plasma concentration of RTX): 0.0597 ng/mL
- concentration at 4 h (male, dog, plasma, other: intravesical instillation, 250 mcg, male dogs 1003, 1005 individual, 250 mcg intravesical, 4 h, read-out: Plasma concentration of RTX): 0 ng/mL
- concentration at 6 h (male, dog, plasma, other: intravesical instillation, 250 mcg, male dogs 1003, 1005 individual, 250 mcg intravesical, 6 h, read-out: Plasma concentration of RTX): 0 ng/mL
- concentration at 12 h (male, dog, plasma, other: intravesical instillation, 250 mcg, male dogs 1003, 1005 individual, 250 mcg intravesical, 12 h, read-out: Plasma concentration of RTX): 0 ng/mL
- concentration at 24 h (male, dog, plasma, other: intravesical instillation, 250 mcg, male dogs 1003, 1005 individual, 250 mcg intravesical, 24 h, read-out: Plasma concentration of RTX): 0 ng/mL
- concentration at 36 h (male, dog, plasma, other: intravesical instillation, 250 mcg, male dogs 1003, 1005 individual, 250 mcg intravesical, 36 h, read-out: Plasma concentration of RTX): 0 ng/mL
- concentration at 48 h (male, dog, plasma, other: intravesical instillation, 250 mcg, male dogs 1003, 1005 individual, 250 mcg intravesical, 48 h, read-out: Plasma concentration of RTX): 0 ng/mL
- concentration at 60 h (male, dog, plasma, other: intravesical instillation, 250 mcg, male dogs 1003, 1005 individual, 250 mcg intravesical, 60 h, read-out: Plasma concentration of RTX): 0 ng/mL
- concentration at 72 h (male, dog, plasma, other: intravesical instillation, 250 mcg, male dogs 1003, 1005 individual, 250 mcg intravesical, 72 h, read-out: Plasma concentration of RTX): 0 ng/mL
- concentration at 0.5 h (male, dog, plasma, other: intravesical instillation, 250 mcg, male dogs, 250 mcg intravesical, 0.5 h, read-out: Plasma concentration of RTX, Mean): 0.349 ng/mL
- concentration at 1 h (male, dog, plasma, other: intravesical instillation, 250 mcg, male dogs, 250 mcg intravesical, 1 h, read-out: Plasma concentration of RTX, Mean): 0.208 ng/mL
- concentration at 2 h (male, dog, plasma, other: intravesical instillation, 250 mcg, male dogs, 250 mcg intravesical, 2 h, read-out: Plasma concentration of RTX, Mean): 0.0615 ng/mL
- concentration at 4 h (male, dog, plasma, other: intravesical instillation, 250 mcg, male dogs, 250 mcg intravesical, 4 h, read-out: Plasma concentration of RTX, Mean): 0 ng/mL
- concentration at 6 h (male, dog, plasma, other: intravesical instillation, 250 mcg, male dogs, 250 mcg intravesical, 6 h, read-out: Plasma concentration of RTX, Mean): 0 ng/mL
- concentration at 12 h (male, dog, plasma, other: intravesical instillation, 250 mcg, male dogs, 250 mcg intravesical, 12 h, read-out: Plasma concentration of RTX, Mean): 0 ng/mL
- concentration at 24 h (male, dog, plasma, other: intravesical instillation, 250 mcg, male dogs, 250 mcg intravesical, 24 h, read-out: Plasma concentration of RTX, Mean): 0 ng/mL
- concentration at 36 h (male, dog, plasma, other: intravesical instillation, 250 mcg, male dogs, 250 mcg intravesical, 36 h, read-out: Plasma concentration of RTX, Mean): 0 ng/mL
- concentration at 48 h (male, dog, plasma, other: intravesical instillation, 250 mcg, male dogs, 250 mcg intravesical, 48 h, read-out: Plasma concentration of RTX, Mean): 0 ng/mL
- concentration at 60 h (male, dog, plasma, other: intravesical instillation, 250 mcg, male dogs, 250 mcg intravesical, 60 h, read-out: Plasma concentration of RTX, Mean): 0 ng/mL
- concentration at 72 h (male, dog, plasma, other: intravesical instillation, 250 mcg, male dogs, 250 mcg intravesical, 72 h, read-out: Plasma concentration of RTX, Mean): 0 ng/mL
